Experimental data as given in patent US20140363871A1, “PROCESS FOR OBTAINING COPPER NANOPARTICLES FROM A FUNGUS SELECTED BETWEEN HYPOCREA LIXII AND TRICHODERMA KONINGIOPSIS AND USE OF FUNGI SELECTED BETWEEN HYPOCREA LIXII AND TRICHODERMA KONINGIOPSIS IN BIOREMEDIATION OF WASTEWATER AND PRODUCTION OF COPPER NANOPARTICLES” (VALE S.A., priority 2013, published 2014).

What was measured:
[1] = test system: H. lixii; assay: Minimum inhibitory concentration in agar medium (spot plate method); format: cell-based, Hypocrea lixii; conditions: H. lixii on SDA plates with copper 50-2000 mg L^−1, 25° C., at least 5 days
Description: (§1) Copper tolerance of the isolated fungus was determined as the minimum inhibitory concentration (MIC) by the spot plate method [Ahmad I, Ansari M I, Aqil F (2006) Biosorption of Ni, Cr and Cd by metal tolerante Aspergillus niger and Penicillium sp using single and multi-metal solution. Indian J Exp Biol 44: 73-76]. SDA plates containing different concentrations of copper (50 to 2000 mg L^−1) were prepared and inocula of the tested fungus were spotted onto the metal and control plates (plate without metal). The plates were incubated at 25° C. for at least 5 days. The MIC is defined as the lowest concentration of metal that inhibits visible growth of the isolate.

[2] = test system: T. koningiopsis; assay: as above; format: cell-based, Trichoderma koningiopsis; conditions: T. koningiopsis on SDA plates with copper 50-2000 mg L^−1, 25° C., at least 5 days
Description: as §1

## O.O.[Cl][Cu][Cl] [copper, CuCl2.2H2O]
[1]
  minimum inhibitory concentration (MIC), tolerance to copper: 528 mg/L
[2]
  minimum inhibitory concentration (MIC), tolerance to copper: 1057 mg/L
